Reference: US6153424A, “Protease-deficient strains of Pichia methanolica” (ZymoGenetics, Inc., priority 1999, dated 2000)

Test system: P. methanolica cells (strain CBS6515), UV-mutagenized
Experiment: Nystatin enrichment for auxotrophic mutants; titering of colony forming units of treated versus control cells
Type: cell-based, Pichia methanolica
Settings: 1 mg nystatin added to remainder of 500 ml culture (50 ml set aside as control) in minimal broth with 5 g/L ammonium sulfate, 1 additional hour with shaking
Experimental: Large-scale mutagenesis was then carried out using a 2-second UV exposure to provide about 20% killing. Cells were plated at approximately 10^4 cells/plate onto eight YEPD plates that were supplemented with 100 mg/L each of uracil, adenine, and leucine, which were added to supplement the growth of potential auxotrophs having the cognate deficiencies. Following UV exposure the plates were wrapped in foil and incubated overnight at 30° C. The following day the colonies on the plates (~10^5 total) were resuspended in water and washed once with water. An amount of cell suspension sufficient to give an OD600 of 0.1-0.2 was used to inoculate 500 ml of minimal broth made with yeast nitrogen base without amino acids or ammonia, supplemented with 1% glucose and 400 μg/L biotin. The culture was placed in a 2.8 L baffled Bell flask and shaken vigorously overnight at 30° C. The following day the cells had reached an OD600 of ~1.0-2.0. The cells were pelleted and resuspended in 500 ml of minimal broth supplemented with 5 g/L ammonium sulfate. The cell suspension was placed in a 2.8 L baffled Bell flask and shaken vigorously at 30° C. for 6 hours. 50 ml of the culture was set aside in a 250-ml flask as a control, and to the remainder of the culture was added 1 mg nystatin (Sigma Chemical Co., St. Louis, Mo.) to select for auxotrophic mutants (Snow, Nature 211:206-207, 1966). […]

C[C@@H]1[C@H](O)[C@@H](C)/C=C/C=C/CC/C=C/C=C/C=C/C=C/C(O[C@H]2O[C@H](C)[C@@H](O)[C@H](N)[C@@H]2O)CC2O[C@](O)(CC(O)C(O)CCC(O)CC(O)CC(O)CC(=O)O[C@H]1C)CC(O)C2C(=O)O (stereo partly shown) [nystatin]
decrease in the number of viable cells (colony forming units) by a factor: 10^4
